Measurements from US10604509B2, “Nrf2 regulators” (GlaxoSmithKline Intellectual Property Development Limited, priority 2015, dated 2020).
Counter-ions that a name gives are not always drawn. Like-named read-outs stand apart in the source and are kept apart here.

Assays:
[1] = tested on: COPD macrophages and alveolar macrophages from cigarette smoke-exposed mice; settings: cited from earlier work
rats [2] = settings: rats on a choline-deficient L-amino acid-defined diet; cited from earlier work
rats [3] = settings: cerebral ischemia-reperfusion model; cited from earlier work
mice = settings: NRF2 wild-type and KO mice after administration; cited from earlier work
[4] = tested on: NQO1 specific enzyme activity in BEAS-2B cells; test: BEAS-2B NQO1 MTT assay; format: cell-based; settings: BEAS-2B cells, 48 hours with compound, MTT readout, read-out: EC50 of NQO1 specific activity induction
Outline: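 BEAS-2B cells treated with compound 48 h at 37° C, 5% CO2, then lysed; NQO1 activity in lysate measured kinetically by MTT cocktail at Absorbance 570 nm over 30 min. EC50 for induction from Delta OD/min versus log concentration, 3-parameter fit; Cell Titer Glo run on lysate aliquot.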

C[S+]([O-])CCCCN=C=S (stereo not shown) [Sulforaphane]
expression of Macrophage Receptor with Collagenous structure (MARCO) ([1]; COPD macrophages and alveolar macrophages from cigarette smoke-exposed mice): increases the expression of Macrophage Receptor with Collagenous structure (MARCO) | bacterial phagocytosis and bacterial clearance ([1]; Pseudomonas aeruginosa, non-typable Haemophilus influenzae, ex vivo and in vivo): improving in these cells bacterial phagocytosis

O=C(NCc1ccccn1)Nc1nnc(-c2ccco2)o1 [NK-252]
progression of histologic abnormalities, especially hepatic fibrosis (rats [2]): significantly attenuated progression of histologic abnormalities

CC(C)(C)c1cc(O)ccc1O [tert-butylhydroquinone (tBHQ), tert-butylhydroquinone]
cortical damage (rats [3]): reduced cortical damage | cortical glutathione levels (mice): increased in NRF2 wild-type but not KO mice

Cc1c(-c2cnccn2)ssc1=S [oltipraz]
progression of histologic abnormalities, especially hepatic fibrosis (rats [2]): significantly attenuated progression of histologic abnormalities

Cc1ccc(C(c2ccc3c(nnn3C)c2C)C(C)(C)C(=O)O)cc1Cn1ccnc1CN1CCCCCC1 (stereo not shown) [Example 151, 3-(3-((2-(Azepan-1-ylmethyl)-1H-imidazol-1-yl)methyl)-4-methylphenyl)-3-(1,4-dimethyl-1H-benzo-[d][1,2,3]triazol-5-yl)-2,2-domethylpropanoic acid, 0.3 formic acid salt]
EC50 ([4]; formic acid salt): 1 to 10 nM

CC[C@@H]1CN(Cc2cc([C@@H](c3ccc4c(nnn4C)c3C)C(C)(C)C(=O)O)ccc2C)Cc2ccncc2O1 [Example 219, (S)-3-(1,4-Dimethyl-1H-benzo[d][1,2,3]triazol-5-yl)-3-(3-(((R)-2-ethyl-2,3-dihydropyrido[4,3-f][1,4]oxazepin-4(5H)-yl)methyl)-4-methylphenyl)-2,2-dimethylpropanoic Acid, Trifluoroacetate]
EC50 ([4]; Homo sapiens, BEAS-2B, 48 h): 1 to 10 nM

Cc1ccc(C(CC(=O)O)c2ccc3c(nnn3C)c2C)cc1CN1Cc2ccccc2OC(C)C1 (stereo not shown) [Example 3, trifluoroacetic Acid Salt]
EC50 ([4]; Homo sapiens, BEAS-2B, 48 h): 1000 to 10000 nM

CC[C@@H]1CN(Cc2cc(C(CC(=O)O)c3ccc4c(nnn4CC)c3F)ccc2C)Cc2ccccc2O1 (single isomer, unassigned) [Example 181]
EC50 ([4]; Homo sapiens, BEAS-2B, 48 h): 10 to 100 nM
